{"source": "patent US10882901B2", "about": "“Methods of treating diabetes by an adipocyte protein 2 specific antibody” (President and Fellows of Harvard College, priority 2009, dated 2021)", "molecules": {"B1": {"name": "recombinant aP2: Recombinant aP2 with 6×His tag produced in E. coli, purified, endotoxin removed (protein)", "chain": "CDAFVGTWKLVSSENFDDYMKEVGVGFATRKVAGMAKPNMIISVNGDLVTIRSESTFKNTEISFKLGVEFDEITADDRKVKSIITLDGGALVQVQKWDGKSTTIKRKRDGDKLVVECVMKGVTSTRVYERA"}}, "key": {"[1]": {"system": "differentiated adipocytes", "experiment": "aP2 secretion into conditioned medium of differentiated adipocytes (immunoblot)", "type": "cell-based", "conditions": "for aP2 release from adipocytes treated with inhibitors of classical secretory pathways: conditioned medium blotted with anti-aP2; for lipolysis-induced aP2 secretion from adipocytes: co-treatment of adipocytes in which lipolysis was induced (IBMX/dbcAMP)", "excerpt": "HEK 293 cells were maintained in DMEM with 10% fetal bovine serum. FABP-deficient cell lines were established as previously described. Cao, H. et al. Identification of a lipokine, a lipid hormone linking adipose tissue to systemic metabolism. Cell 134, 933-944 (2008). Makowski, L. et al. Lack of macrophage fatty-acid-binding protein aP2 protects mice deficient in apolipoprotein E against atherosclerosis. Nat Med 7, 699-705 (2001). Pre-adipocytes were maintained in DMEM with 10% bovine calf serum and differentiated into adipocytes in DMEM with 10% cosmic calf serum (CCS) using a standard differentiation protocol. To induce lipolysis, differentiated adipocytes were treated with forskolin at 20 nM, or IBMX 1 mM/dibutyryl cAMP 1 mM for one hour. For lipid treatments, 0.25 mM palmitate or stearate was dissolved in DMEM with 10% CCS and added to adipocytes cultured in 12-well plates. At the end of one hour, the medium was replaced with the same lipid-containing medium, and conditioned medium was collected an additional hour later. To collect fat explants, epididymal adipose tissue depots were dissected from mice and rinsed twice in PBS. Adipose tissue samples were then transferred into DMEM with 10% CCS and minced into an average size of 1 to 2 mm. The tissue explants were washed extensively with DMEM and cultured in DMEM containing 10% CCS. Lipolysis was induced in the same manner as adipocytes.\n(§1) Tissue protein lysate and conditioned medium from adipocytes were separated on SDS-PAGE gels and stained with Coomassie (Biorad Laboratory), or were detected with immunoblotting using the following antibodies: adiponectin from Santa Cruz Biotechnology, MFG-E8 from Calbiochem, caveolin-1 from BD Bioscience, AKT from Cell Signaling Technology. Flag-tagged aP2 was immunoprecipated using 4 ml of conditioned medium from transfected HEK 293 cells after incubation with 30 μl Flag agarose beads (Sigma) overnight at 4° C. Proteins bound to agarose beads were eluted with SDS loading buffer and resolved with SDS-PAGE."}, "[2]": {"system": "differentiated adipocytes", "experiment": "Adiponectin secretion into conditioned medium of differentiated adipocytes (immunoblot)", "type": "cell-based", "conditions": "inhibitors of classical secretory pathways", "excerpt": "FIG. 7A is a photograph of an electrophonetic gel showing non-classical secretion of aP2. Conditioned medium from adipocytes treated with control, brefeldin A (Bref A) or monensin (Mon) were blotted using anti-aP2 or adiponectin antibodies. Whole cell lysate (WCL) was also blotted using anti-aP2 antibody.\nas §1"}, "serum aP2": {"system": "serum aP2", "experiment": "Serum aP2 in mice after isoproterenol-induced lipolysis", "type": "in vivo", "conditions": "isoproterenol 10 mg/kg, blood 15 min following injection, vs vehicle", "description": "Blood was collected from mice by tail bleeding after 6 hours of food withdrawal and spun in a microcentrifuge at 13,000 rpm for 30 minutes. Serum aP2 was determined with an ELISA system (Biovendor Inc.). […] To determine aP2 levels during lipolysis, blood was collected from 12 mice at baseline levels. After this, 6 mice were injected with isoproterenol (10 mg/kg body weight) and the other 6 received vehicle control. Blood samples were collected 15 min following injection for aP2 measurement."}, "[3]": {"experiment": "Serum aP2 ELISA after recombinant aP2 injection or infusion", "type": "in vivo, mice", "experimental": "FIG. 11 is a bar graph showing serum aP2 in WT mice after recombinant aP2 injection. Serum samples of mice were collected at indicated time points after aP2 injection and aP2 levels were determined with an aP2 ELISA.\nFIG. 13 is a line graph showing Serum aP2 in FABP-deficient (DKO) mice during aP2 infusion. Serum samples were collected from FABP-deficient mice during aP2 infusion at indicated time points. Serum aP2 levels were determined with an aP2 ELISA.\nBlood was collected from mice by tail bleeding after 6 hours of food withdrawal and spun in a microcentrifuge at 13,000 rpm for 30 minutes. Serum aP2 was determined with an ELISA system (Biovendor Inc.). To monitor nutritional regulation of serum aP2, blood samples were collected from mice immediately prior to the start of dark cycle after which animals were placed in cages without food. After 24 hours of fasting, a second set of blood samples were collected and food was provided. Final blood sampling was performed 4 hours after re-feeding. To determine aP2 levels during lipolysis, blood was collected from 12 mice at baseline levels. After this, 6 mice were injected with isoproterenol (10 mg/kg body weight) and the other 6 received vehicle control. Blood samples were collected 15 min following injection for aP2 measurement. […]"}, "PEPCK and G6P": {"system": "PEPCK and G6P", "experiment": "Liver gluconeogenic gene expression by quantitative real-time PCR", "type": "in vivo", "conditions": "WT mice infused with recombinant aP2 vs control protein", "experimental": "FIG. 6K is a bar graph showing gene expression in livers of WT mice infused with control protein or recombinant aP2 (top panel) or mice on HFD injected with control or aP2 antibody (bottom panel). PEPCK and G6P in liver tissues were analyzed with quantitative real-time PCR. *, p<0.05.\nTotal RNA was isolated from liver tissues using Trizol reagent (Invitrogen). Reverse transcription was carried out with a superscript first-strand cDNA synthesis system (Applied Biosystems Inc.) using 1 μg of RNA. Quantitative, real-time RT-PCR was performed on a PCR thermal cycler (Applied Biosystems Inc.). The PCR program was: 2 min 30 s at 95° C. for enzyme activation, 40 cycles of 15 s at 95° C., 30 s at 58° C., and 1 min at 72° C. for extension. Melting curve analysis was performed to confirm the real-time PCR products. All quantitations were normalized to the 1 8S rRNA. Primer sequences used were the following: PEPCK, forward: […](SEQ ID NO: 5), reverse: CAGCAACTGCCCGTACTCC (SEQ ID NO: 6); G6P, forward: […] (SEQ ID NO:7), reverse: […] (SEQ ID NO: 8)."}, "[4]": {"system": "WT mice maintained on regular chow diet", "experiment": "Glucose tolerance test of regular diet mice injected with recombinant aP2", "type": "in vivo", "conditions": "lean WT mice, recombinant aP2 100 μg twice a day for two weeks, vs control Gus protein", "excerpt": "FIG. 6I is a line graph showing glucose tolerance test of mice on regular diet injected with control Gus protein or recombinant aP2 for two weeks. *, p<0.05. Mice with homozygous null mutations in aP2 and mall were backcrossed more than 12 generations into a C57BL/6J genetic background. Mice were maintained on regular chow diet (RD) or placed on high-fat diet (Research Diets, Inc) at 4 weeks of age for 20 weeks to induce dietary obesity. Leptin-deficient (ob/ob) mice were purchased from the Jackson laboratory. All mice were maintained on a 12-hour light and dark cycle. Glucose and insulin tolerance tests using standard methods. Recombinant aP2 or control Gus protein with 6×His tag was produced in E. coli and purified with B-PER 6×His Spin Purification Kit (Pierce Biotechnology, Inc). Proteins were further purified by removing endotoxin with a commercial system (Lonza Inc.). 100 μg of control or aP2 protein was injected into WT mice maintained on regular chow diet twice a day for two weeks. The rabbit polyclonal antibody against mouse aP2 was produced using recombinant, full-length aP2 protein and the antibody was purified from serum of the final bleed using the NAb™ Spin system (Pierce Biotechnology, Inc). Pre-immune serum was purified similarly and used as control. […]"}, "FABP-deficient mice": {"system": "FABP-deficient mice", "experiment": "Hyperinsulinemic-euglycemic clamp in FABP-deficient mice infused with recombinant aP2", "type": "in vivo", "experimental": "The mice were fasted overnight before the experiments and were infused with Intralipid at 3 ml/kg/h (Abbott) and heparin (6 U/h) for 5 hours. […] Mice were catheterized as described above. Hyperinsulinemic-euglycemic clamps were performed by a modification of a reported procedure^15. After an overnight fast, HPLC purified [3H]-glucose (0.05 μCi/min; PerkinElmer Life and Analytical Sciences, Boston, Mass.) was infused during the 2-h basal period, and blood samples were collected at the end to estimate the rate of basal hepatic glucose production. After the basal period, a 120-min hyperinsulinemic-euglycemic clamp was conducted with a primed-continuous infusion of human insulin (Humulin R; Eli Lilly, Indianapolis, Ind.) at a rate of 12.5 mU/kg/min. Blood samples were collected at 20-min intervals for the immediate measurement of plasma glucose concentrations, and 25% glucose was infused at variable rates to maintain plasma glucose at basal concentrations. Insulin-stimulated whole-body glucose turnover was estimated with a continuous infusion of [3-^3H]-glucose throughout the clamps (0.1 μCi/min). All infusions were performed using flow-controlled microdialysis pumps (CMA/Microdialysis, North Chelmsford, Mass.). Blood samples were taken at 80, 85, 90, 100, 110, and 120 min after the start of clamps for the determination of plasma [^3H]-glucose, and ^3H2O concentrations. […]"}}, "note": "“Also recorded” adds a separate entry of the source."}
{"molecule": "C[C@H]1CCC/C=C/[C@@H]2C[C@H](O)C[C@H]2[C@H](O)/C=C/C(=O)O1", "note": "[brefeldin A]", "values": [{"measurement": "aP2 release from adipocytes treated with inhibitors of classical secretory pathways", "setting": "[1]", "value": "neither had any inhibitory effect"}, {"measurement": "adiponectin secretion from adipocytes", "setting": "[2]", "value": "efficiently blocked adiponectin secretion"}]}
{"molecule": "diethylumbelliferyl phosphate [DEUP]", "values": [{"measurement": "lipolysis-induced aP2 secretion from adipocytes", "setting": "[1]", "value": "completely blocked lipolysis-induced aP2 secretion"}]}
{"molecule": "CC[C@@]1([C@@H]2O[C@@H]([C@H]3O[C@@](O)(CO)[C@H](C)C[C@@H]3C)C[C@@H]2C)CC[C@H]([C@]2(C)CC[C@]3(C[C@H](O)[C@@H](C)[C@@H]([C@@H](C)[C@@H](OC)[C@H](C)C(=O)O)O3)O2)O1", "note": "[monensin]", "values": [{"measurement": "aP2 release from adipocytes treated with inhibitors of classical secretory pathways", "setting": "[1]", "value": "neither had any inhibitory effect"}, {"measurement": "adiponectin secretion from adipocytes", "setting": "[2]", "value": "efficiently blocked adiponectin secretion"}]}
{"molecule": "CC(C)NCC(O)c1ccc(O)c(O)c1", "note": "(centres unmarked) [isoproterenol]", "values": [{"measurement": "serum aP2 levels", "setting": "serum aP2", "value": "rapid increase in serum aP2 levels"}]}
{"molecule": "insulin", "values": [{"measurement": "lipolysis-induced aP2 secretion from adipocytes", "setting": "[1]", "value": "aP2 secretion was suppressed"}]}
{"molecule": "B1", "values": [{"measurement": "serum aP2 levels during aP2 infusion", "setting": "[3]; FABP-deficient mice, infusion 8 μg/kg/min", "value": "rapid increase in serum aP2 levels"}, {"measurement": "serum aP2 levels after a single dose of recombinant aP2", "setting": "[3]; WT mice on regular chow diet, injection", "value": "increased levels of serum aP2 that lasted for several hours"}, {"measurement": "G6P gene expression in liver", "setting": "PEPCK and G6P", "value": "significantly upregulated"}, {"measurement": "PEPCK gene expression in liver", "setting": "PEPCK and G6P", "value": "significantly upregulated"}, {"measurement": "glucose tolerance in glucose tolerance test", "setting": "[4]", "value": "mild glucose intolerance; also recorded: developed glucose intolerance"}, {"measurement": "glucose metabolism rates", "setting": "FABP-deficient mice; FABP-deficient mice infused with recombinant aP2", "value": "absence of alterations in glucose metabolism rates"}, {"measurement": "basal hepatic glucose production (bHGP)", "setting": "FABP-deficient mice; FABP-deficient mice infused with recombinant aP2 for 4 hours, vs control protein", "value": "significantly increased basal hepatic glucose production"}]}
